Results from patent US12077503B2, “Substituted cyclic amides and their use as herbicides” (FMC CORPORATION, priority 2015, dated 2024).

Tests used:
Assay type in all cases: in vivo
Kochia (Kochia scoparia) [1] = test: Test A preemergence; settings: Bassia scoparia, pre-emergence, 240 h, 0 to 100 scale where 0 is no effect and 100 is complete control, read-out: Kochia plant response rating
Method in brief: (§1)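 Seeded soil received test chemicals as a preemergence directed spray, and seedlings at one to two leaves, 2–10 cm tall, received them postemergence, in a non-phytotoxic, surfactant-containing solvent mixture. Pots were held in a greenhouse for approximately 10 d, then rated for injury from 0, no effect, to 100, complete control.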

[2] = test system: barnyardgrass (Echinochloa crus-galli); test: Test A preemergence; settings: Echinochloa crus-galli, pre-emergence, 240 h, 0 to 100 scale where 0 is no effect and 100 is complete control, read-out: Barnyardgrass plant response rating
Method in brief: as §1

[3] = test system: giant foxtail (Setaria faberii); test: Test A preemergence; settings: Setaria faberi, pre-emergence, 240 h, 0 to 100 scale where 0 is no effect and 100 is complete control, read-out: Foxtail, Giant plant response rating
Method in brief: as §1

[4] = test system: pigweed (Amaranthus retroflexus); test: Test A preemergence; settings: Amaranthus retroflexus, pre-emergence, 240 h, 0 to 100 scale where 0 is no effect and 100 is complete control, read-out: Pigweed plant response rating
[5] = test system: ragweed (common ragweed, Ambrosia elatior); test: Test A preemergence; settings: Ambrosia artemisiifolia, pre-emergence, 240 h, 0 to 100 scale where 0 is no effect and 100 is complete control, read-out: Ragweed plant response rating
Method in brief: as §1

[6] = test system: ryegrass, Italian (Italian ryegrass, Lolium multiflorum); test: Test A preemergence; settings: Lolium multiflorum, pre-emergence, 240 h, 0 to 100 scale where 0 is no effect and 100 is complete control, read-out: Ryegrass, Italian plant response rating
Method in brief: as §1

[7] = test system: Galium (catchweed bedstraw, Galium aparine); test: Test A postemergence; settings: Galium, post-emergence, 240 h
Method in brief: as §1

Kochia (Kochia scoparia) [8] = test: Test A postemergence; settings: Bassia scoparia, post-emergence, 240 h
Method in brief: as §1

[9] = test system: barnyardgrass (Echinochloa crus-galli); test: Test A postemergence; settings: Echinochloa crus-galli, post-emergence, 240 h
Method in brief: as §1

[10] = test system: blackgrass (Alopecurus myosuroides); test: Test A postemergence; settings: Alopecurus myosuroides, post-emergence, 240 h
Method in brief: as §1

corn (Zea mays) = test: Test A postemergence; settings: Zea mays, post-emergence, 240 h
Method in brief: as §1

[11] = test system: giant foxtail (Setaria faberii); test: Test A postemergence; settings: Setaria faberi, post-emergence, 240 h
Method in brief: as §1

[12] = test system: pigweed (Amaranthus retroflexus); test: Test A postemergence; settings: Amaranthus retroflexus, post-emergence, 240 h, 125 g ai/ha, postemergence, visual injury vs untreated controls after approx. 10 d; 0 = no effect, 100 = complete control; read-out: Pigweed plant response rating (0 to 100 scale)
Method in brief: as §1

[13] = test system: ragweed (common ragweed, Ambrosia elatior); test: Test A postemergence; settings: Ambrosia artemisiifolia, post-emergence, 240 h, 125 g ai/ha, postemergence, visual injury vs untreated controls after approx. 10 d; 0 = no effect, 100 = complete control; read-out: Ragweed plant response rating (0 to 100 scale)
Method in brief: as §1

[14] = test system: ryegrass, Italian (Italian ryegrass, Lolium multiflorum); test: Test A postemergence; settings: Lolium multiflorum, post-emergence, 240 h, 125 g ai/ha, postemergence, visual injury vs untreated controls after approx. 10 d; 0 = no effect, 100 = complete control; read-out: Ryegrass, Italian plant response rating (0 to 100 scale)
Method in brief: as §1

[15] = test system: wheat (Triticum aestivum); test: Test A postemergence; settings: Triticum aestivum, post-emergence, 240 h, 125 g ai/ha, postemergence, visual injury vs untreated controls after approx. 10 d; 0 = no effect, 100 = complete control; read-out: Wheat plant response rating (0 to 100 scale)
Method in brief: as §1

[16] = test system: barnyardgrass (Echinochloa crus-galli); test: Test B flooded paddy test; settings: Echinochloa crus-galli, 250 g ai/ha, Flood; 0 to 100 scale where 0 is no effect and 100 is complete control; read-out: Barnyardgrass plant response rating
Method in brief: (§2)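 Flooding to 3 cm over soil accompanied treatment, which consisted of adding compound to the standing water around 2-leaf plants; depth was then maintained. Visual assessment versus controls followed at 13 to 15 d (scale 0–100, 0 meaning no effect).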

[17] = test system: ducksalad (Heteranthera limosa); test: Test B flooded paddy test; settings: Heteranthera limosa, 250 g ai/ha, Flood; 0 to 100 scale where 0 is no effect and 100 is complete control; read-out: Ducksalad plant response rating
Method in brief: as §2

rice (Oryra sativa) = test: Test B flooded paddy test; settings: Oryza sativa, 250 g ai/ha, Flood; 0 to 100 scale where 0 is no effect and 100 is complete control; read-out: Rice plant response rating
Method in brief: as §2

[18] = test system: sedge, umbrella (small-flower umbrella sedge, Cyperus difformis); test: Test B flooded paddy test; settings: Cyperus difformis, 250 g ai/ha, Flood; 0 to 100 scale where 0 is no effect and 100 is complete control; read-out: Sedge, Umbrella plant response rating
Method in brief: as §2

[19] = 125 g ai/ha, preemergence, approx. 10 d

CON1CC[C@H](c2cccc(C(F)(F)F)c2)[C@@H](C(=O)Nc2ccccc2C(F)(F)F)C1=O [Compound 1172]
0%: pest or weed control at 31 g/ha (Kochia (Kochia scoparia) [1]; 31 g ai/ha, Preemergence) | pest or weed control at 125 g/ha (Kochia (Kochia scoparia) [1]; [19]) | pest or weed control at 31 g/ha ([2]; 31 g ai/ha, Preemergence) | pest or weed control at 125 g/ha [2, 19] | pest or weed control at 31 g/ha ([3]; 31 g ai/ha, Preemergence) | pest or weed control at 125 g/ha [3, 19] | pest or weed control at 31 g/ha ([4]; 31 g ai/ha, Preemergence) | pest or weed control at 125 g/ha [4, 19] | pest or weed control at 31 g/ha ([5]; 31 g ai/ha, Preemergence) | pest or weed control at 125 g/ha [5, 19] | pest or weed control at 31 g/ha ([6]; 31 g ai/ha, Preemergence) | pest or weed control at 125 g/ha [6, 19] | pest or weed control at 125 g/ha ([7]; 125 g ai/ha, postemergence, visual injury vs untreated controls after approx. 10 d, 0 = no effect, 100 = complete control, read-out: Galium plant response rating (0 to 100 scale)) | pest or weed control at 31 g/ha ([7]; Postemergence, 31 g ai/ha, visual injury after approx. 10 d, 0 to 100 scale, 0 no effect, 100 complete control, read-out: Plant response rating, Galium) | pest or weed control at 125 g/ha (Kochia (Kochia scoparia) [8]; 125 g ai/ha, postemergence, visual injury vs untreated controls after approx. 10 d, 0 = no effect, 100 = complete control, read-out: Kochia plant response rating (0 to 100 scale)) | pest or weed control at 31 g/ha (Kochia (Kochia scoparia) [8]; Postemergence, 31 g ai/ha, visual injury after approx. 10 d, 0 to 100 scale, 0 no effect, 100 complete control, read-out: Plant response rating, Kochia) | pest or weed control at 125 g/ha ([9]; 125 g ai/ha, postemergence, visual injury vs untreated controls after approx. 10 d, 0 = no effect, 100 = complete control, read-out: Barnyardgrass plant response rating (0 to 100 scale)) | pest or weed control at 31 g/ha ([9]; Postemergence, 31 g ai/ha, visual injury after approx. 10 d, 0 to 100 scale, 0 no effect, 100 complete control, read-out: Plant response rating, Barnyardgrass) | pest or weed control at 125 g/ha ([10]; 125 g ai/ha, postemergence, visual injury vs untreated controls after approx. 10 d, 0 = no effect, 100 = complete control, read-out: Blackgrass plant response rating (0 to 100 scale)) | pest or weed control at 31 g/ha ([10]; Postemergence, 31 g ai/ha, visual injury after approx. 10 d, 0 to 100 scale, 0 no effect, 100 complete control, read-out: Plant response rating, Blackgrass) | plant injury at 125 g/ha (corn (Zea mays); 125 g ai/ha, postemergence, visual injury vs untreated controls after approx. 10 d, 0 = no effect, 100 = complete control, read-out: Corn plant response rating (0 to 100 scale)) | Corn plant response rating (crop injury, 0 = no effect, 100 = complete kill) at 31 g/ha (corn (Zea mays); Postemergence, 31 g ai/ha, visual injury after approx. 10 d, 0 to 100 scale, 0 no effect, 100 complete control) | pest or weed control at 125 g/ha ([11]; 125 g ai/ha, postemergence, visual injury vs untreated controls after approx. 10 d, 0 = no effect, 100 = complete control, read-out: Foxtail, Giant plant response rating (0 to 100 scale)) | pest or weed control at 31 g/ha ([11]; Postemergence, 31 g ai/ha, visual injury after approx. 10 d, 0 to 100 scale, 0 no effect, 100 complete control, read-out: Plant response rating, Foxtail, Giant) | pest or weed control at 125 g/ha [12] | pest or weed control at 125 g/ha [13] | pest or weed control at 125 g/ha [14] | plant injury at 125 g/ha [15] | pest or weed control at 250 g/ha [16] | pest or weed control at 250 g/ha [17] | pest or weed control at 250 g/ha (rice (Oryra sativa)) | pest or weed control at 250 g/ha [18]
